Columns and labels:
Format in all cases: in vivo
[1] = system: wild oat (Avena fatua); test: Test C postemergence greenhouse test, plant response rating 0-100; settings: for Plant response rating, Oat, Wild: scale 0 to 100
In short: (§1)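 Response is a visual 0–100 control rating taken 13 to 15 days post-treatment, with a dash marking no result. Plants ranged 2 to 18 cm when treated postemergence.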

[2] = system: chickweed (common chickweed, Stellaria media); test: as above; settings: for Plant response rating, Chickweed: scale 0 to 100
In short: as §1

[3] = system: kochia (Kochia scoparia); test: as above; settings: for Plant response rating, Kochia: scale 0 to 100
In short: as §1

[4] = system: galium (catchweed bedstraw, Galium aparine); test: Test C pre-/postemergence greenhouse test, plant response rating 0-100; settings: Postemergence; for Plant response rating, Galium: scale 0 to 100
In short: (§2)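 Pre- and postemergence greenhouse test: seeds sown in loam/sand and treated preemergence, or plants at 2–18 cm (1- to 4-leaf stage) in peat-based medium sprayed postemergence, with compounds in non-phytotoxic solvent plus surfactant. Visual rating versus untreated controls after 13–15 days, 0 (no effect) to 100 (complete control).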

[5] = system: winter wheat (Triticum aestivum); test: as above; settings: Postemergence; for Plant response rating, Wheat: scale 0 to 100
In short: as §2

[6] = system: soybean (Glycine max); test: as above; settings: Postemergence; for Plant response rating, Soybean: scale 0 to 100
In short: as §2

[7] = system: johnsongrass (Sorghum halepense); test: as above; settings: Postemergence; for Plant response rating, Johnsongrass: scale 0 to 100
In short: as §2

[8] = system: Italian ryegrass (Lolium multiflorum); test: as above; settings: Postemergence; for Plant response rating, Ryegrass, Italian: scale 0 to 100
In short: as §2

[9] = system: giant foxtail (Setaria faberii); test: as above; settings: Postemergence; for Plant response rating, Foxtail, Giant: scale 0 to 100
In short: as §2

[10] = system: lambsquarters (Chenopodium album); test: as above; settings: Postemergence; for Plant response rating, Lambsquarters: scale 0 to 100
In short: as §2

[11] = system: corn (Zea mays); test: as above; settings: Postemergence; for Plant response rating, Corn: scale 0 to 100
In short: as §2

[12] = system: yellow nutsedge (Cyperus esculentus); test: as above; settings: Postemergence; for Plant response rating, Nutsedge, Yellow: scale 0 to 100
In short: as §2

[13] = system: pigweed (Amaranthus retroflexus); test: as above; settings: Postemergence; for Plant response rating, Pigweed: scale 0 to 100
In short: as §2

Fc1ccc(NN=C(c2ccccc2)c2c[nH]nc2-c2cc(Cl)cc(Cl)c2)cc1 [Compound 35]
0: Plant response rating (0 to 100), Oat, Wild ([1]; 62 g ai/ha) | Plant response rating (0 to 100), Oat, Wild ([1]; 125 g ai/ha) | Plant response rating, Oat, Wild ([1]; 250 g ai/ha) | Plant response rating, Oat, Wild ([1]; 500 g ai/ha) | Plant response rating (0 to 100), Galium ([4]; 62 g ai/ha) | Plant response rating (0 to 100), Galium ([4]; 125 g ai/ha) | Plant response rating, Galium ([4]; 250 g ai/ha) | Plant response rating (0 to 100), Wheat ([5]; 62 g ai/ha) | Plant response rating (0 to 100), Wheat ([5]; 125 g ai/ha) | Plant response rating, Wheat ([5]; 250 g ai/ha) | Plant response rating, Wheat ([5]; 500 g ai/ha) | Plant response rating (0 to 100), Johnsongrass ([7]; 62 g ai/ha) | Plant response rating (0 to 100), Johnsongrass ([7]; 125 g ai/ha) | Plant response rating, Johnsongrass ([7]; 250 g ai/ha) | Plant response rating, Johnsongrass ([7]; 500 g ai/ha) | Plant response rating (0 to 100), Ryegrass, Italian ([8]; 62 g ai/ha) | Plant response rating (0 to 100), Ryegrass, Italian ([8]; 125 g ai/ha) | Plant response rating, Ryegrass, Italian ([8]; 250 g ai/ha) | Plant response rating, Ryegrass, Italian ([8]; 500 g ai/ha) | Plant response rating (0 to 100), Foxtail, Giant ([9]; 62 g ai/ha) | Plant response rating (0 to 100), Foxtail, Giant ([9]; 125 g ai/ha) | Plant response rating, Foxtail, Giant ([9]; 250 g ai/ha) | Plant response rating (0 to 100), Corn ([11]; 62 g ai/ha) | Plant response rating (0 to 100), Corn ([11]; 125 g ai/ha) | Plant response rating (0 to 100), Nutsedge, Yellow ([12]; 62 g ai/ha)
85: Plant response rating (0 to 100), Pigweed ([13]; 62 g ai/ha)
90: Plant response rating, Kochia ([3]; 250 g ai/ha)
5: Plant response rating, Galium ([4]; 500 g ai/ha) | Plant response rating, Foxtail, Giant ([9]; 500 g ai/ha) | Plant response rating, Corn ([11]; 250 g ai/ha) | Plant response rating, Corn ([11]; 500 g ai/ha) | Plant response rating (0 to 100), Nutsedge, Yellow ([12]; 125 g ai/ha) | Plant response rating, Nutsedge, Yellow ([12]; 250 g ai/ha) | Plant response rating, Nutsedge, Yellow ([12]; 500 g ai/ha)
95: Plant response rating, Kochia ([3]; 500 g ai/ha)
55: Plant response rating (0 to 100), Kochia ([3]; 125 g ai/ha)
10: Plant response rating (0 to 100), Soybean ([6]; 62 g ai/ha) | Plant response rating (0 to 100), Soybean ([6]; 125 g ai/ha) | Plant response rating, Soybean ([6]; 250 g ai/ha) | Plant response rating, Soybean ([6]; 500 g ai/ha)
50: Plant response rating (0 to 100), Kochia ([3]; 62 g ai/ha)
98: Plant response rating (0 to 100), Chickweed ([2]; 62 g ai/ha) | Plant response rating (0 to 100), Lambsquarters ([10]; 62 g ai/ha) | Plant response rating (0 to 100), Lambsquarters ([10]; 125 g ai/ha)
100: Plant response rating (0 to 100), Chickweed ([2]; 125 g ai/ha) | Plant response rating, Chickweed ([2]; 250 g ai/ha) | Plant response rating, Chickweed ([2]; 500 g ai/ha) | Plant response rating, Lambsquarters ([10]; 250 g ai/ha) | Plant response rating, Lambsquarters ([10]; 500 g ai/ha) | Plant response rating (0 to 100), Pigweed ([13]; 125 g ai/ha) | Plant response rating, Pigweed ([13]; 250 g ai/ha) | Plant response rating, Pigweed ([13]; 500 g ai/ha)

CCn1cc(C(=NN2CCCC2)c2ccccc2)c(-c2cc(Cl)cc(Cl)c2)n1 [Compound 37]
10: Plant response rating (0 to 100), Nutsedge, Yellow ([12]; 62 g ai/ha) | Plant response rating (0 to 100), Nutsedge, Yellow ([12]; 125 g ai/ha) | Plant response rating, Nutsedge, Yellow ([12]; 250 g ai/ha)
45: Plant response rating (0 to 100), Lambsquarters ([10]; 62 g ai/ha)
80: Plant response rating (0 to 100), Pigweed ([13]; 125 g ai/ha)
15: Plant response rating (0 to 100), Kochia ([3]; 62 g ai/ha) | Plant response rating (0 to 100), Kochia ([3]; 125 g ai/ha)
35: Plant response rating, Kochia ([3]; 250 g ai/ha)
75: Plant response rating, Chickweed ([2]; 250 g ai/ha) | Plant response rating (0 to 100), Pigweed ([13]; 62 g ai/ha)
100: Plant response rating, Pigweed ([13]; 250 g ai/ha)
55: Plant response rating (0 to 100), Lambsquarters ([10]; 125 g ai/ha)
5: Plant response rating (0 to 100), Soybean ([6]; 62 g ai/ha) | Plant response rating (0 to 100), Soybean ([6]; 125 g ai/ha) | Plant response rating, Soybean ([6]; 250 g ai/ha) | Plant response rating (0 to 100), Corn ([11]; 125 g ai/ha) | Plant response rating, Corn ([11]; 250 g ai/ha)
70: Plant response rating (0 to 100), Chickweed ([2]; 31 g ai/ha) | Plant response rating (0 to 100), Chickweed ([2]; 125 g ai/ha)
25: Plant response rating (0 to 100), Foxtail, Giant ([9]; 125 g ai/ha) | Plant response rating, Foxtail, Giant ([9]; 250 g ai/ha)
65: Plant response rating, Lambsquarters ([10]; 250 g ai/ha)
0: Plant response rating (0 to 100), Oat, Wild ([1]; 62 g ai/ha) | Plant response rating (0 to 100), Oat, Wild ([1]; 125 g ai/ha) | Plant response rating, Oat, Wild ([1]; 250 g ai/ha) | Plant response rating (0 to 100), Galium ([4]; 31 g ai/ha) | Plant response rating (0 to 100), Galium ([4]; 62 g ai/ha) | Plant response rating (0 to 100), Galium ([4]; 125 g ai/ha) | Plant response rating, Galium ([4]; 250 g ai/ha) | Plant response rating (0 to 100), Wheat ([5]; 62 g ai/ha) | Plant response rating (0 to 100), Wheat ([5]; 125 g ai/ha) | Plant response rating, Wheat ([5]; 250 g ai/ha) | Plant response rating (0 to 100), Johnsongrass ([7]; 62 g ai/ha) | Plant response rating (0 to 100), Johnsongrass ([7]; 125 g ai/ha) | Plant response rating, Johnsongrass ([7]; 250 g ai/ha) | Plant response rating (0 to 100), Ryegrass, Italian ([8]; 62 g ai/ha) | Plant response rating (0 to 100), Ryegrass, Italian ([8]; 125 g ai/ha) | Plant response rating, Ryegrass, Italian ([8]; 250 g ai/ha) | Plant response rating (0 to 100), Foxtail, Giant ([9]; 31 g ai/ha) | Plant response rating (0 to 100), Foxtail, Giant ([9]; 62 g ai/ha) | Plant response rating (0 to 100), Corn ([11]; 31 g ai/ha) | Plant response rating (0 to 100), Corn ([11]; 62 g ai/ha)

Reference: patent publication US10167262B2, “Herbicidal substituted 3-arylpyrazoles” (FMC CORPORATION, priority 2014, dated 2019)
